Data published in US20240398783A1, “Compounds and Pharmaceutical Compositions Comprising Inhibitors of Amyloid Peptide Interactions with Glycosaminoglycans, Methods of Treatment and Use Thereof” (Gismo Therapeutics, Inc., priority 2021, published 2024).
Structures can show the parent of a compound that is named as a salt.

Each compound was assayed against Amyloid-beta(1-40) binding to heparin (HS-GAG) (Homo sapiens, UniProt P05067) (assay: Inhibition of Amyloid-beta(1-40) binding to immobilized heparin-BSA (ELISA)). Details: 30 μM compound; Abeta(1-40), heparin-BSA; read-out: Abeta40/Heparin Activity (% inhibition class).
Parameters: species or system porcine
Procedure: Porcine intestinal mucosa heparin conjugated to Bovine Serum Albumin (Heparin-BSA) was prepared as described (Najjam, S. et al. 1997, Cytokine 12, 1013-1022). Heparin is a sulfated HS-GAG and is commonly used as a HS-GAG in biochemical and binding assays (Lindahl, U. and Kjellen, L. (2013) ibid). Heparin-BSA at 0.01 mg/ml in Phosphate Buffered Saline (PBS; pH 7.4) was added to a 96 well polystyrene ELISA plate (NUNC Cat. No. 449824; 100 μl per well) and incubated Over Night (ON) at 4 degrees Celsius. For negative controls, ELISA plates were coated with BSA instead of Heparin-BSA, using the same procedure. Following the incubation, the plate was washed consecutively, by immersion, with de-ionized water and PBS (pH 7.4). The ELISA plate was then blocked with nonfat milk (2%, 200 μl per well) for 2 hours at Room Temperature (RT) with gentle shaking. Following blocking, the plate was washed with de-ionized water then PBS (pH 7.4). GBAPs were dissolved and diluted in PBS (pH 6.5, supplemented with 0.1% BSA) at desired concentrations, added to the ELISA plates containing immobilized Heparin-BSA (100 μl per well) and incubated for 2 hours at RT with gentle shaking. Following incubation, the plate was washed with de-ionized water and three times with PBS (pH 6.5) plus Tween. Bound GBAP was detected by a monoclonal antibody specific for that GBAP, followed by incubation with secondary antibody conjugated to horseradish peroxidase (HRP). Antibody was diluted in PBS (pH 6.5 supplemented with 1% BSA). Following each incubation with antibody, the plate was washed with de-ionized water and three times with PBS (pH 6.5) wash buffer containing 0.1% Tween. The peroxidase substrate chromogen, TMB (Dako Cat. No. S1599) was added (100 μl per well) to the ELISA plate and incubated at room temperature. After 5 minutes ELISA Stop Solution (hydrochloric acid 1N, sulfuric acid 3N) was added (100 μl per well) to stop the peroxidase catalyzed colorimetric reaction. The Optical Density of the samples was measured at 450 nm using an ELISA plate reader (BioTek Synergy H1). Following color development, the % inhibition compared to control (BSA-coated plates) was determined. IC-50s were calculated using GraphPad Prism software.
The assay was performed as described in Example 43, with the following modifications. Following to coating the plates with Heparin-BSA, plates were washed as described. The compounds were dissolved in DMSO at 10 mM final concentration and further diluted prior to assay. DMSO concentration in the screening well was up to 2%. Individual compounds were co-incubated with Beta-amyloid peptides on plates containing immobilized heparin. Beta-amyloid (1-42) was purchased from rPeptide (Cat. No. A1163) and used to prepare oligomers according to Stine et al., 2003 (J Biol Chem. 278(13):11612-22) as follows. 1,1,1,3,3,3-Hexafluoro-2-propanol- (HFIP; Sigma Cat. No. 105228)-treated Beta amyloid (1-42) was dissolved in dry DMSO (Sigma Cat. No. D2650) to 5 mM concentration. Dissolved Beta amyloid (1-42) was then diluted to 100 μM in ice-cold cell culture medium (phenol red-free Ham's F-12; Caisson Labs, Cat. No. HFL05), followed immediately by vortexing for 30 seconds, and incubating at 4 degrees Celsius for 24 h. Resulting Beta amyloid (1-42) oligomers were centrifuged at 12,000 rpm for 10 min at 4 degree Celsius to remove aggregates. Oligomers were then quickly frozen and kept in aliquots at −80 degrees Celsius. Beta-amyloid (1-40) from rPeptide (Cat No. A1153) was dissolved in DMSO, quickly frozen and kept in aliquots at −80 degrees Celsius. Beta-amyloid (1-42) oligomers or Beta-amyloid (1-40) diluted in PBS (pH 6.5, supplemented with BSA, 0.1%) were added to the ELISA plate (100 μl per well) and incubated for 2 hours at RT with gentle shaking. Following the incubation, the plate was washed with de-ionized water and three times with PBS (pH 6.5) plus Tween. […]

Sequence of Amyloid-beta(1-40) binding to heparin (HS-GAG) (P05067 672-711): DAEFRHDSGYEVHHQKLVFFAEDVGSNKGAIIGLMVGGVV

| Compound | inhibition at 30 µM |
| --- | --- |
| CN(C)Cc1cc(Nc2ccnc3cc(Cl)ccc23)ccn1 [Compound 45, 7-chloro-N-(2-((dimethylamino)methyl)pyridin-4-yl)quinolin-4-amine] | < 30% |

Same assay, conditions: Abeta40/Heparin Activity (IC-50), Abeta(1-40), co-incubation on heparin-BSA plates

| Compound | IC50 |
| --- | --- |
| COc1cc(Nc2nncc3cc(Cl)ccc23)cnc1-n1cnc(C)c1C [Compound 31, 6-chloro-N-(6-(4,5-dimethyl-1H-imidazol-1-yl)-5-methoxypyridin-3-yl)phthalazin-1-amine phosphoric acid salt] | 23.3 µM |
| Clc1ccc2c(Nc3ccc(-n4cncn4)nc3)ncnc2c1 [Compound 34, N-(6-(1H-1,2,4-triazol-1-yl)pyridin-3-yl)-7-chloroquinazolin-4-amine phosphoric acid salt] | 34.8 µM |
| CC(=NNc1ccnc2cc(Cl)ccc12)c1ccc(-n2ccnc2)cc1 [Compound 36, 4-(2-(1-(4-(1H-imidazol-1-yl)phenyl)ethylidene)hydrazineyl)-7-chloroquinoline phosphate] | 13.8 µM |
| Cc1cn(-c2ccc(Nc3cncc4cc(Cl)ccc34)cn2)c(C)n1 [Compound 37, 7-chloro-N-(6-(2,4-dimethyl-1H-imidazol-1-yl)pyridin-3-yl)isoquinolin-4-amine phosphoric acid salt] | 45.6 µM |
| Clc1ccc2c(N/N=C/c3ccc(-n4ccnc4)cc3)ccnc2c1 [Compound 38, 4-(2-(4-(1H-imidazol-1-yl)benzylidene)hydrazineyl)-7-chloroquinoline dihydrochloride] | 1.28 µM |
| CCN1CCN(c2ccc(Nc3ccnc4cc5ccccc5cc34)cc2)CC1 [Compound 39, N-(4-(4-ethylpiperazin-1-yl)phenyl)benzo[g]quinolin-4-amine] | 20.7 µM |
| CCN(CC)Cc1cccc(Nc2ccnc3cc(Cl)ccc23)c1 [Compound 42, 7-chloro-N-(3-((diethylamino)methyl)phenyl)quinolin-4-amine] | 12.3 µM |
| Clc1ccc2c(Nc3ccc(-n4cncn4)nc3)ccnc2c1 [Compound 44, N-(6-(1H-1,2,4-triazol-1-yl)pyridin-3-yl)-7-chloroquinolin-4-amine] | 19.3 µM |

Same assay, conditions: Abeta(1-40), co-incubation on heparin-BSA plates; read-out: Abeta40/Heparin Activity (IC-50)

| IC50 | Compound |
| --- | --- |
| 3.12 µM | CC(=NNc1ncnc2cc(Cl)ccc12)c1ccnc(-n2cnc(C)c2C)c1 [Compound 28, 7-chloro-4-(2-(1-(2-(4,5-dimethyl-1H-imidazol-1-yl)pyridin-4-yl)ethylidene)hydrazineyl)quinazoline] |
| 32.7 µM | Clc1ccc2c(Nc3ccc(-n4ccnc4)nc3)ncnc2c1 [Compound 41, N-(6-(1H-imidazol-1-yl)pyridin-3-yl)-7-chloroquinazolin-4-amine] |

Same assay, conditions: read-out: Abeta40/Heparin Activity (% inhibition class)

| Compound | inhibition at 30 µM |
| --- | --- |
| C/C(=N\Nc1ncnc2cc(Cl)ccc12)c1cccc(N2CCN(C)CC2)c1 [Compound 30, 7-chloro-4-(2-(1-(3-(4-methylpiperazin-1-yl)phenyl)ethylidene)hydrazineyl)quinazoline] | > 30% |
| COc1cc(Nc2cncc3cc(Cl)ccc23)cnc1-n1cnc(C)c1C [Compound 33, 7-chloro-N-(6-(4,5-dimethyl-1H-imidazol-1-yl)-5-methoxypyridin-3-yl)isoquinolin-4-amine phosphoric acid salt] | < 30% |
| Fc1cc(/C=N/Nc2ccnc3cc(Cl)ccc23)ccc1-n1ccnc1 [Compound 35, (E)-7-chloro-4-(2-(3-fluoro-4-(1H-imidazol-1-yl)benzylidene)hydrazineyl)quinoline hydrochloride] | < 30% |
| Cc1ncn(-c2ncc(Nc3ncnc4cc(Cl)ccc34)cc2O)c1C [Compound 40, 5-((7-chloroquinazolin-4-yl)amino)-2-(4,5-dimethyl-1H-imidazol-1-yl)pyridin-3-ol phosphoric acid salt] | < 30% |
| C[n+]1ccn(-c2ccc(Nc3ncnc4cc(Cl)ccc34)cn2)c1 [Compound 43, 1-(5-((7-chloroquinazolin-4-yl)amino)pyridin-2-yl)-3-methyl-1H-imidazol-3-ium iodide phosphoric acid salt] | < 30% |
